Measurements from patent US8765953B2, “Compounds and methods for the treatment of pain and other diseases” (Aquilus Pharmaceuticals, Inc., priority 2008, dated 2014).

Assays:
[1] = tested on: spinal nerve ligation (SNL) mouse model; assay: Intraperitoneal (i.p.) SNL-mouse model of neuropathic pain, von Frey mechanical allodynia; assay type: in vivo
Text: To measure the neuropathic pain inhibiting affects of the MMP inhibitors of the present invention, the spinal nerve ligation (SNL) mouse model was run on a select number of compounds. This model which began with the work of Bennet and coworkers (Bennet, G. J. et al. Pain, 33, (1988), 87-107) and was optimized by Kim and Chung (Kim, S. H.; Chung, J. M. Pain, 50, (1992), 355-363) entails first, under magnification, the removal of one-third of the transverse process and then identifying and then dissecting free the L5 spinal nerve from the adjacent L4 spinal nerve in the mouse. The L5 spinal nerve is then tightly ligated using 6.0 silk suture. The nerve injury leads to hyperalgesia which manifests itself by enhanced responses to mechanical, heat and/or cooling stimuli. In this case, mechanical hyperalgesia is tested via Von Frey monofilaments in which filaments of varying thicknesses and bending force are individually applied to the plantar surface of the foot of the mouse. The threshold force necessary for paw withdrawal decreases dramatically after the nerve surgery. Potent pain inhibitors will reverse this affect resulting in greater force needing to be applied to cause the rodent paw to withdrawal.
Tactile Allodynia Test. Mechanical allodynia was measured using the calibrated von Frey filaments (Semmes-Weinstein monofilaments; Stoelting, Wood Dale, Ill., U.S.A.). The plantar surface of the left injured paw of each animal was tested as described by Chaplan et al. (Journal of Neuroscience Methods, 53, (1994), 55-63). The Fifty percent paw withdrawal threshold response was determined by sequentially increasing or decreasing the stimulus strength according to the “up-down method” of Dixon (Annual Review Pharmacology Toxicology, 20, (1980), 441-462). For mice, […] von Frey filaments were used, with approximately equal logarithmic incremental bending forces (von Frey number: 1.65, 2.36, 2.44, 2.83, 3.22, 3.61, 3.84, 4.08, and 4.17; equivalent to 0.005, 0.02, 0.03, 0.07, 0.17, 0.41, 0.69, 1.20, and 1.48 g force, respectively).
Prior to testing, each animal was placed in a suspended clear plastic chamber with a wire mesh bottom and acclimated for 15 minutes. Testing was initiated with the 0.07 g (handle marking of 2.83) applied perpendicularly to the plantar surface of the affected hind paw; each filament was applied with enough pressure to cause a buckle effect. The absence of a paw lifting/withdrawal response after 6 s prompted the use of the next higher weight filament. Paw withdrawal, indicating a positive response, prompted the use of a weaker filament. After the initial positive response (i.e., paw withdrawal), the testing continued for four additional measurements, and was used to calculate the response threshold. Four consecutive positive responses received a score of 0.001 g, and five consecutive negative responses (i.e., no paw withdrawal) received a score of 1.5 g.
Analyses for Tactile Allodynia Testing. The 50% paw withdrawal threshold was calculated (PWT; Luo and Calcutt, J. Pharmacology Experimental Therapeutics, 303(3), (2002), 1199-1205; Chaplan et al. Journal of Neuroscience Methods, 53, (1994), 55-63) using the formula: 10(Xf+κδ)/10,000 where Xf is the final von Frey filament used (log units), κ is a value that analyzes the response pattern (taken from the table published by Chaplan et al., 1994), and δ is the mean difference between stimuli (log units).
Except for the mode of administration, number of mice/group and the number of injections and amount of compound per injection, the rest of the study was done in the same manner (in regards to the surgeries and tactile allodynia testing and analysis) as Experiment 110. 3.2 mg of each of the MMP inhibitors #5 and #118 were dissolved in 320 microliters of DMSO. To the solution was then added 32 microliters of Tween 80, followed by 2850 microliters of phosphate buffered saline (PBS). This gave a final concentration of 10% DMSO, 1% Tween and 1 mg/ml compound. […]

[2] = In-vitro mouse microsomal stability; assay type: in vitro ADME; details: mouse microsomes, 1 microMolar compound, at T = 60 minutes
Description: Human and mouse microsomal stability was determined for select compounds following the method of Houston (Houston, J. B; Biochem. Pharmacol. 47, (1994),1469).
1 μM concentration of compound and separate human and mouse microsomes (0.3 mg/mL, BD bioscience) were used in the in-vitro assay. To ensure proper energy supply for microsomal degradation of compound, an energy regenerating system comprised of 100 mM potassium phosphate, 2 mM NADPH, 3 mM MgCl2, pH=7.4. and the microsomal protein is added to each sample and the resulting suspension is then incubated in duplicate for 60 min at 37° C. in a rotary shaker. A control is run for each test agent in duplicate omitting NADPH to detect NADPH-free degradation. At T=0 and T=60 min., an aliquot is removed from each experimental and control reaction and then mixed with an equal volume of ice-cold Stop Solution (consisting of 0.3% acetic acid in acetonitrile containing haloperidol and diclofenac as internal standards). Stopped reactions are then incubated for at least ten minutes at −20° C., and an additional volume of water is then added. The samples are then centrifuged to remove precipitated protein, and the supernatants are then analyzed by LC-MS/MS to determine the percentage of compound remaining. The LC-MS/MS system used was an Agilent 6410 mass spectrometer coupled with an Agilent 1200 HPLC and a CTC PAL chilled autosampler, all controlled by MassHunter software (Agilent), or an ABI2000 mass spectrometer coupled with an Agilent 1100 HPLC and a CTC PAL chilled autosampler, all controlled by Analyst software (ABI). After separation on a C18 reverse phase HPLC column (Agilent, Waters, or equivalent) using an acetonitrile-water gradient system, peaks were analyzed by mass spectrometry (MS) using ESI ionization in MRM mode.

[3] = i.p. 100 μl/mouse daily (approx. 3.3 mg/Kg), day 1-5

Compound: Cc1ccc(C#Cc2ccc(S(=O)(=O)N[C@H](Cc3c[nH]c4ccccc34)C(=O)O)s2)cc1 [Compound 5, (R)-3-(1H-Indol-3-yl)-2-(5-p-tolylethynyl-thiophene-2-sulfonylamino)-propionic acid]
- Paw withdrawal threshold, mean, Day 1 [1, 3]: 0.078 grams
- Paw withdrawal threshold, mean, Day 2 [1, 3]: 0.117 grams
- Paw withdrawal threshold, mean, Day 5 [1, 3]: 0.238 grams
- Paw withdrawal threshold, mean, Day 6 [1, 3]: 0.099 grams
- Paw withdrawal threshold, mean, Day 7 [1, 3]: 0.128 grams
- Paw withdrawal threshold, mean, Day 0 Postoperative Baseline ([1]; i.p. study, baseline before treatment): 0.046 grams
- % Mean Remaining Parent with NADPH (%) ([2]; with NADPH): 83%
- % Mean Remaining Parent without NADPH (%) ([2]; without NADPH (control)): 88%
